Measured values published in patent US9428753B2, “Use of LXR antagonists for treatment of side effects of elevated glucocorticoid levels” (The Governing Council of the University of Toronto, priority 2013, dated 2016).

Tests used:
G6Pc = G6Pc gene expression in mouse primary hepatocytes; conditions: LXRα−/− hepatocytes; for G6Pc expression: 100 nM Dex + 10 μM LXR antagonist; for GC-induced G6Pc expression: Example 6, GC alone (10 μM; Dex 100 nM), overnight
Method: For the gene expression studies, the isolated hepatocytes were cultured at least 24 hrs prior to treatment with 10 μM Cortisol, 10 μM Triamcinolone acetonide, 10 μM Prednisone, and 100 nM Dex all±10 μM GSK2033 overnight, and then harvested to isolate mRNA.

Pepck = Pepck gene expression in mouse primary hepatocytes; format: cell-based; conditions: for GC-induced Pepck expression: Example 6, GC alone (10 μM; Dex 100 nM)
GR = molecular target: T1, GR (Homo sapiens, UniProt P04150); test: GAL4-GR / UAS-luc co-transfection reporter assay in HEK293 cells; format: cell-based; design: co-transfecting UAS-reporter and GAL4-LBD of the nuclear receptors LXRα, LXRβ and GR; GAL4 (fusion partner); expressed in transfected cells; host or cells: HEK293 cells; mouse primary hepatocytes; conditions: Example 7, 100 nM Dex
T1 sequence (P04150 524-758 limits assumed): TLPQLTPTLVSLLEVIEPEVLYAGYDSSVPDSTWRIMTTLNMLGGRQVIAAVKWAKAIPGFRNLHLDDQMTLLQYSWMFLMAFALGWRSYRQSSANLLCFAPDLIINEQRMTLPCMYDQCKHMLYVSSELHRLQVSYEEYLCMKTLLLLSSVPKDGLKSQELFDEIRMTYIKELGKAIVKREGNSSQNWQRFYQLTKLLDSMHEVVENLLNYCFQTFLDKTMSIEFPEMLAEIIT
Method: (§1) RLU=relative luciferase units.
as §1
Further experiments were then carried out to determine the inhibitory potencies for the individual LXR isoforms in HEK 293 cells by co-transfecting UAS-reporter and GAL4-LBD of the nuclear receptors LXRα, LXRβ and GR and then treating with 8 different concentrations of GSK2033. To assess suppression of ligand activated receptors, the transfected cells were co-treated with increasing doses of GSK2033, in addition to T09091317 or Dex (dexamethasone) (at EC80 of LXR isoforms and GR, respectively).
A number of experiments were carried out to determine the relative inhibitory potencies of GSK2033, Amgen 54 and DMHCl for the individual LXR isoforms in HEK 293 cells by co-transfecting UAS-reporter and GAL4-LBD of the nuclear receptors LXRα, LXRβ and GR and then treating with 6 different concentrations of GSK2033, Amgen 54 and DMHCl. To assess suppression of ligand activated receptors, the transfected cells were co-treated with increasing doses of GSK2033, Amgen 54 and DMHCl, in addition to T09091317 or Dex (at EC80 of LXR isoforms and GR, respectively).

LXRα−/− mice = test: In vivo 5 day Dex ± GSK2033 co-treatment study; design: species or system mouse; conditions: Dex group
Method: LXRα−/− mice were treated with Vehicle (Veh), Dex (2.5 mg/kg) b.i.d. or GSK2033 40 mg/kg (once a day) along with Dex b.i.d. for 5 days. (A) Plasma glucose levels were measured by a colorimetric kit (Wako). (B) Spleen weights were measured at the time of sacrifice, and are presented normalized to body weight. (C) Liver Pepck, FOXO1, Pgc 1α, FGF21, GR and LXRβ gene expression measured by QPCR. Data represent the Avg±SEM, N=2-5. *P<0.05 by One way ANOVA, Student Newman Keuls.
Having observed promising results with GSK2033 co-treatment with Dex in-vitro (GSK2033-mediated suppression of GC-induced gluconeogenic side effects without affecting desirable immune suppression); a study was conducted, in which whole body LXRα−/− mice were treated with vehicle (Veh), 2.5 mg/kg bid (subcutaneous injection) Dex or Dex+40 mg/kg GSK2033 (once a day intraperitoneal injection) for 5 days, and sacrificed at lights on.

[1] = test system: mouse primary hepatocytes; test: Glucose production (glucose output) in mouse primary hepatocytes; format: cell-based
Method: (§2) T09 treatment was used as a positive control for LXR activity. (D) Glucose output over 24 hrs from LXRα−/− and LXRβ−/− mouse primary hepatocytes following Dex 100 nM±10 μM GSK2033 treatment. (E) Glucose output over 8 hrs from WT hepatocytes following Dex 500 nM±10 μM GSK2033 treatments. Data represent the Avg±SD, N=3. *P<0.05 by One way ANOVA, Student Newman Keuls. Legend: V=vehicle, G=GSK2033 (LXR antagonist); D=dexamethasone (GR agonist); and T09=T0901317 (LXR agonist).
While not wishing to be limited by theory, subsequent to conducting these initial studies it was realized that 24 hour incubation of hepatocytes in gluconeogenic media may be too long. In the literature, for this type of assay, primary heptocytes are usually incubated up to 12 hours. As such, for subsequent studies of the present application, WT cells were treated with 500 nM Dex for 8 hours to be able to measure detectable levels of glucose in the media.

[2] = test system: tyrosine aminotransferase (TAT); test: TAT gene expression in mouse primary hepatocytes; format: cell-based; conditions: 100 nM Dex
Method: as §2, with “Data represent the Avg±SD, N=3. *P<0.05 by One way ANOVA, Student Newman Keuls.” left out

IL-6 = IL-6 gene expression in LPS activated mouse primary macrophages (RT-QPCR); format: cell-based; conditions: LPS activated macrophages; 250 nM T09, 18 hrs
Method: (§3) The expression of genes involved in immune response IL-1β, IL-6 and GILZ was measured following an overnight treatment with Dex 100 nM, 250 nM T0901317 (T09), and/or 10 μM GSK2033 in LPS activated WT, LXR α −/− and LXRβ −/− mouse primary macrophages, by RT-QPCR. Data represent the Avg±SD, N=3. *P<0.05 by One way ANOVA, Student Newman Keuls.
(§4) To assess the ability of GSK2033 to affect GR-mediated inflammatory suppression, a number of gene expression studies were conducted on primary macrophages isolated from WT, LXRα−/− and LXRβ−/− mice. Cells were pre-treated with 10 ng/ml lipopolysaccharide (LPS) for 6 hrs (to induce a potent inflammatory response) followed by treatment of 100 nM Dex, 10 μM GSK2033 and/or 250 nM T09 for 18 hrs.

Srebp-1c = Srebp-1c gene expression in mouse primary hepatocytes; format: cell-based; conditions: 250 nM T09
IL-1β = IL-1β gene expression in LPS activated mouse primary macrophages (RT-QPCR); format: cell-based; conditions: LPS activated macrophages; 250 nM T09, 18 hrs
Method: as §3, §4

[3] = Example 8, LXRα−/− hepatocytes, 100 nM Dex + 10 μM LXR antagonist

In the case of `CS(=O)(=O)c1ccc(C#CC(O)(c2ccc(N(CC3CC3)S(=O)(=O)c3ccccc3)cc2)C(F)(F)F)cc1` (stereo not drawn) [Amgen 54], the G6Pc expression (G6Pc; Example 8) was 6.5 fold, the Pepck expression (Pepck; [3]) was 8.4 fold and the “Dex induced GR activity” value (GR) was “unaffected”.

In the case of `C[C@]12CCC(=O)C=C1CC[C@@H]1[C@@H]2[C@@H](O)C[C@@]2(C)[C@H]1CC[C@]2(O)C(=O)CO` [Cortisol, cortisol (hydrocortisone)], the “GC-induced G6Pc expression” value (G6Pc) was 10.3 fold and the “GC-induced Pepck expression” value (Pepck; LXRα−/− hepatocytes, overnight) was 23.9 fold.

For `CC(CCC(=O)N(C)C)[C@H]1CC[C@H]2C3CC=C4CC(Cl)CC[C@]4(C)C3CC[C@]12C` (stereo partly drawn) [DMHCl], the G6Pc expression (G6Pc; Example 8) was 3.9 fold, the Pepck expression (Pepck; [3]) was 1.4 fold and the “Dex induced GR activity” value (GR) was “unaffected”.

In the case of `C[C@@H]1C[C@H]2[C@@H]3CCC4=CC(=O)C=C[C@]4(C)[C@@]3(F)[C@@H](O)C[C@]2(C)[C@@]1(O)C(=O)CO` [Dex, dexamethasone], the “GC-induced G6Pc expression” value (G6Pc) was 11.2 fold, the “Dex-mediated G6Pc expression” value (G6Pc; Example 8, 100 nM Dex alone) was 10.3 fold and the Pepck expression (Pepck; Example 3, LXRα−/− hepatocytes, 100 nM Dex alone) was 15.7 fold. For the same compound, the Pepck expression (Pepck; Example 3, WT hepatocytes, 100 nM Dex alone, overnight) was 8.5 fold, the “GC-induced Pepck expression” value (Pepck; LXRα−/− hepatocytes, overnight) was 23.2 fold and the “Dex-induced Pepck expression” value (Pepck; Example 8, LXRα−/− hepatocytes, 100 nM Dex alone) was 15.8 fold. For the same compound, the “liver FOXO 1 gene expression (induction)” value (LXRα−/− mice) was 3.3 fold, the “liver Pepck gene expression (induction)” value (LXRα−/− mice) was 3.7 fold and the “glucose secretion (glucose output)” value ([1]; LXRα−/− hepatocytes, 100 nM Dex alone, 24 hours) was 2.2 fold. The “glucose secretion (glucose output)” value ([1]; WT hepatocytes, 500 nM Dex alone, 8 hours) was 3 fold, the “TAT expression (induction)” value ([2]; LXRα−/− hepatocytes) was 12.7 fold and the “TAT expression (induction)” value ([2]; LXRβ−/− hepatocytes) was 9.7 fold. For the same compound, the “TAT expression (induction)” value ([2]; WT hepatocytes) was 20.8 fold.

In the case of `C[C@]12C=CC(=O)C=C1CC[C@@H]1[C@@H]2C(=O)C[C@@]2(C)[C@H]1CC[C@]2(O)C(=O)CO` [Prednisone, prednisone], the “GC-induced G6Pc expression” value (G6Pc) was 22.3 fold and the “GC-induced Pepck expression” value (Pepck; LXRα−/− hepatocytes, overnight) was 9.3 fold.

For `O=S(=O)(c1ccccc1)N(CC(F)(F)F)c1ccc(C(O)(C(F)(F)F)C(F)(F)F)cc1` [T09], the “IL-6 expression, LXR agonist alone” value (IL-6) was “suppression”, the “Srebp-1c expression (induction)” value (Srebp-1c; LXRα−/− hepatocytes) was 3.7 fold and the “Srebp-1c expression (induction)” value (Srebp-1c; LXRβ−/− hepatocytes) was 42.0 fold. For the same compound, the “Srebp-1c expression (induction)” value (Srebp-1c; WT hepatocytes) was 37.7 fold and the “IL-1β expression, LXR agonist alone” value (IL-1β) was “suppression”.

In the case of `CC1(C)O[C@@H]2C[C@H]3[C@@H]4CCC5=CC(=O)C=C[C@]5(C)[C@@]4(F)[C@@H](O)C[C@]3(C)[C@]2(C(=O)CO)O1` [Triamcinolone acetonide, triamcinolone acetonide], the “GC-induced G6Pc expression” value (G6Pc) was 27.3 fold and the “GC-induced Pepck expression” value (Pepck; LXRα−/− hepatocytes, overnight) was 6.1 fold.
